Tested on: Salmonella typhimurium
Assay: Compound was tested in Ames test using Salmonella Typhimurium (TA-92). C is the molar concentration of compound producing 30 mutations/(10e 8) bacteria delivered
Type: functional, organism-based
Conditions: Salmonella enterica subsp. enterica serovar Typhimurium

Row | Substance | Log 1/C
1 | 0-Hexyl-1,3-diamine-platinum 2,2-dichloride | 4.22
2 | 0-Phenylene-1,3-diamine-platinum 2,2-dichloride-3,4,5-trichloro | 7.73
3 | 0-Phenylene-1,3-diamine-platinum 2,2-dichloride-4,5-dichloro | 6.89
4 | 0-Phenylene-1,3-diamine-platinum 2,2-dichloride-4-benzoyl | 7.52
5 | 0-Phenylene-1,3-diamine-platinum 2,2-dichloride-4-carboxylic acid methyl ester | 7
6 | 0-Phenylene-1,3-diamine-platinum 2,2-dichloride-4-ethoxy | 5.6
7 | 0-Phenylene-1,3-diamine-platinum 2,2-dichloride-4-methoxy | 5.65
8 | 0-Phenylene-1,3-diamine-platinum 2,2-dichloride-4-methyl | 5.6
9 | 0-Phenylene-1,3-diamine-platinum 2,2-dichloride-4-nitro | 8.65
10 | 4,5-benzoPhenylene-1,3-diamine-platinum 2,2-dichloride- | 5.92
11 | CISPLATIN | 4.52
12 | Phenylene-1,3-diamine-platinum 2,2-dichloride-4,5-dimethoxy | 4.64

Reference: ChEMBL document CHEMBL1121592, “Mutagenicity of substituted (o-phenylenediamine)platinum dichloride in the Ames test. A quantitative structure-activity analysis” (J Med Chem, 1980)
